Data on 22 compounds can be found in patent US20250059172A1, “INDAZOLE COMPOUND AND PHARMACEUTICAL” (NIPPON SHINYAKU CO., LTD., priority 2021, published 2025).

For experiment [1], the system named is human A549 cells. Nature of the experiment: Inhibition test of PGE2 production using human A549 cells. The experiment is classed as cell-based. The settings on record: IL-1β stimulated A549 cells, 24 h, PGE2 by HTRF, read-out: A549 cell inhibition of PGE2 production IC50. The method in brief:
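A549 cells were preincubated 60 min with compound in RPMI/3% FBS (0.1% DMSO final), then stimulated with IL-1β (5 ng/well) for 24 h at 37°C. PGE2 was measured by HTRF and PGF2a by EIA; activity was normalized to stimulated minus unstimulated controls, and IC50 derived.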

Experiment [2] deals with human mPGES-1 (Homo sapiens (Human), UniProt O14684). Nature of the experiment: mPGES-1 inhibitory activity test. Conditions: for inhibition at 0.01 µM: 10 nM test compound; for inhibition at 0.1 µM: 100 nM test compound. It counts as biochemical. The method in brief:
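PGE2 formation was quantified by HTRF and reported as percent inhibition at 10 and 100 nM compound or as IC50. The 60-second reaction at 4° C used 1 μM PGH2, after a 20-minute 4° C preincubation of compound (1% DMSO final) with glutathione-supplemented (2.5 mM, pH 7.4) microsomes. The microsomes were from transiently transfected CHO-K1 cells expressing human mPGES-1.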

human mPGES-1, sequence (O14684 whole entry): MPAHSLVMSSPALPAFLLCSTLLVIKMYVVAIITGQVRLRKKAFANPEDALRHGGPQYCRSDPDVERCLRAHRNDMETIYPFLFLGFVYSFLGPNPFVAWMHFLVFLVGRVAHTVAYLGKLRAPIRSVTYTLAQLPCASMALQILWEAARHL

Turning to `O=C(Nc1cccc2c1cnn2-c1nccs1)c1cc(CNC(=O)C2(C(F)(F)F)CC2)ccc1Cl` [Example 228, 2-Chloro-N-[1-(1,3-thiazol-2-yl)-1H-indazol-4-yl]-5-[({[1-(trifluoromethyl)cyclopropyl]carbonyl}amino)methyl]benzamide], the IC50 in experiment [1] was 12.9 nM. Also, the inhibition at 0.01 µM in experiment [2] came to 77%.

For `Cc1cc(-n2ncc3c(NC(=O)c4cc(CNC(=O)C5CCCC5)ccc4Cl)cccc32)ccn1` [Example 235, 2-Chloro-5-{[(cyclopentylcarbonyl)amino]methyl}-N-[1-(2-methylpyridin-4-yl)-1H-indazol-4-yl]benzamide], the IC50 in experiment [1] is 6.1 nM. Moreover, in experiment [2], the inhibition at 0.01 µM stood at 53% and the inhibition at 0.1 µM was found to be 88%.

As for `Cc1cncc(-n2ncc3c(NC(=O)c4cc(CNC(=O)C(C)(C)C)ccc4C(F)(F)F)cccc32)c1` [Example 246, 5-{[(2,2-dimethylpropanoyl)amino]methyl}-N-[1-(5-methylpyridin-3-yl)-1H-indazol-4-yl]-2-(trifluoromethyl)benzamide], the IC50 in experiment [1] came out at 3.5 nM. Besides, in experiment [2], the inhibition at 0.01 µM is 78% and the inhibition at 0.1 µM is 89%.

For `Cc1ccc(-n2ncc3c(NC(=O)c4cc(CNS(=O)(=O)C5CC5)ccc4Cl)cccc32)nn1` [Example 253, 2-Chloro-5-{[(cyclopropylsulfonyl)amino]methyl}-N-[1-(6-methylpyridazin-3-yl)-1H-indazol-4-yl]benzamide], in experiment [1], the IC50 is 299 nM. In experiment [2], the inhibition at 0.01 µM was 67% and the inhibition at 0.1 µM was 75%.

Regarding `Cc1ccc(-n2ncc3c(NC(=O)c4cc(CNC(=O)CC(C)(C)C)ccc4Cl)cccc32)cc1C(F)(F)F` [Example 254, 2-Chloro-5-{[(3,3-dimethylbutanoyl)amino]methyl}-N-{1-[4-methyl-3-(trifluoromethyl)phenyl]-1H-indazol-4-yl}benzamide], the IC50 in experiment [1] was found to be 0.7 nM. In addition, in experiment [2], the inhibition at 0.01 µM worked out at 100% and the inhibition at 0.1 µM was 99%.

On to `Cc1ccc(-n2ncc3c(NC(=O)c4cc(CNC(=O)C5(C(F)(F)F)CC5)ccc4Cl)cccc32)cc1C(F)(F)F` [Example 256, 2-Chloro-N-{1-[4-methyl-3-(trifluoromethyl)phenyl]-1H-indazol-4-yl}-5-[({[1-(trifluoromethyl)cyclopropyl]carbonyl}amino)methyl]benzamide], for which, in experiment [1], the IC50 came out at 0.3 nM. In experiment [2], the inhibition at 0.01 µM worked out at 88% and the inhibition at 0.1 µM was determined as 98%.

Turning to `Cc1ccc(-n2ncc3c(NC(=O)c4cc(CNC(=O)C5(O)CC5)ccc4Cl)cccc32)cc1C(F)(F)F` [Example 257, 2-Chloro-5-({[(1-hydroxycyclopropyl)carbonyl]amino}methyl)-N-{1-[4-methyl-3-(trifluoromethyl)phenyl]-1H-indazol-4-yl}benzamide], the IC50 in experiment [1] was 4.3 nM. Moreover, in experiment [2], the inhibition at 0.01 µM came out at 94% and the inhibition at 0.1 µM worked out at 96%.

Consider `COCC(=O)NCc1ccc(Cl)c(C(=O)Nc2cccc3c2cnn3-c2ccc(C)c(C(F)(F)F)c2)c1` [Example 258, 2-Chloro-5-{[(methoxyacetyl)amino]methyl}-N-{l-[4-methyl-3-(trifluoromethyl)phenyl]-1H-indazol-4-yl}benzamide], for which, in experiment [1], the IC50 turned out to be 3.2 nM. In experiment [2], the inhibition at 0.01 µM amounted to 84% and the inhibition at 0.1 µM came to 100%.

With `Cc1ccc(-n2ncc3c(NC(=O)c4cc(CNC(=O)C(C)(C)CO)ccc4Cl)cccc32)cc1C(F)(F)F` [Example 259, 2-Chloro-5-{[(3-hydroxy-2,2-dimethylpropanoyl)amino]methyl}-N-{1-[4-methyl-3-(trifluoromethyl)phenyl]-1H-indazol-4-yl}benzamide], in experiment [1], the IC50 is 0.5 nM. Also, in experiment [2], the inhibition at 0.01 µM is 92% and the inhibition at 0.1 µM came out at 92%.

Turning to `Cc1ccc(-n2ncc3c(NC(=O)c4cc(CNS(=O)(=O)C5CC5)ccc4Cl)cccc32)cc1C(F)(F)F` [Example 260, 2-Chloro-5-{[(cyclopropylsulfonyl)amino]methyl}-N-{1-[4-methyl-3-(trifluoromethyl)phenyl]-1H-indazol-4-yl}benzamide], in experiment [1], the IC50 worked out at 1 nM. In experiment [2], the inhibition at 0.01 µM amounted to 89% and the inhibition at 0.1 µM stood at 101%.

For `COc1ccc(-n2ncc3c(NC(=O)c4cc(CNC(=O)CC(C)(C)C)ccc4Cl)cccc32)cc1C(F)(F)F` [Example 261, 2-Chloro-5-{[(3,3-dimethylbutanoyl)amino]methyl}-N-{1-[4-methoxy-3-(trifluoromethyl)phenyl]-1H-indazol-4-yl}benzamide], the IC50 in experiment [1] amounted to 1.4 nM. Further, in experiment [2], the inhibition at 0.01 µM worked out at 95% and the inhibition at 0.1 µM worked out at 100%.

For the compound `COc1ccc(-n2ncc3c(NC(=O)c4cc(CNC(=O)C5CCCC5)ccc4Cl)cccc32)cc1C(F)(F)F` [Example 262, 2-Chloro-5-{[(cyclopentylcarbonyl)amino]methyl}-N-{1-[4-methoxy-3-(trifluoromethyl)phenyl]-1H-indazol-4-yl}benzamide], the IC50 in experiment [1] was determined as 2 nM. Also, in experiment [2], the inhibition at 0.01 µM stood at 99% and the inhibition at 0.1 µM is 94%.

As to `COc1ccc(-n2ncc3c(NC(=O)c4cc(CNC(=O)C5(C(F)(F)F)CC5)ccc4Cl)cccc32)cc1C(F)(F)F` [Example 263, 2-Chloro-N-{1-[4-methoxy-3-(trifluoromethyl)phenyl]-1H-indazol-4-yl}-5-[({[1-(trifluoromethyl)cyclopropyl]carbonyl}amino)methyl]benzamide], the IC50 in experiment [1] was 0.3 nM. In addition, in experiment [2], the inhibition at 0.01 µM is 89% and the inhibition at 0.1 µM turned out to be 85%.

Take `COc1ccc(-n2ncc3c(NC(=O)c4cc(CNC(=O)C5(O)CC5)ccc4Cl)cccc32)cc1C(F)(F)F` [Example 264, 2-Chloro-5-({[(1-hydroxycyclopropyl)carbonyl]amino}methyl)-N-{1-[4-methoxy-3-(trifluoromethyl)phenyl]-1H-indazol-4-yl}benzamide]: the IC50 in experiment [1] was 5.1 nM. For the same compound, in experiment [2], the inhibition at 0.01 µM worked out at 94% and the inhibition at 0.1 µM came out at 97%.

Take `COCC(=O)NCc1ccc(Cl)c(C(=O)Nc2cccc3c2cnn3-c2ccc(OC)c(C(F)(F)F)c2)c1` [Example 265, 2-Chloro-5-{[(methoxyacetyl)amino]methyl}-N-{1-[4-methoxy-3-(trifluoromethyl)phenyl]-1H-indazol-4-yl}benzamide]: in experiment [1], the IC50 worked out at 2.7 nM. Moreover, in experiment [2], the inhibition at 0.01 µM came to 95% and the inhibition at 0.1 µM was 100%.

For `COc1ccc(-n2ncc3c(NC(=O)c4cc(CNC(=O)C5CCCC5)ccc4Cl)cccc32)cn1` [Example 270, 2-Chloro-5-{[(cyclopentylcarbonyl)amino]methyl}-N-[1-(6-methoxypyridin-3-yl)-1H-indazol-4-yl]benzamide], the IC50 in experiment [1] turned out to be 3.5 nM. Moreover, in experiment [2], the inhibition at 0.01 µM was found to be 64% and the inhibition at 0.1 µM amounted to 88%.

Turning to `COc1ccc(-n2ncc3c(NC(=O)c4cc(CNC(=O)C5(C(F)(F)F)CC5)ccc4Cl)cccc32)cn1` [Example 271, 2-Chloro-N-[1-(6-methoxypyridin-3-yl)-1H-indazol-4-yl]-5-[({[1-(trifluoromethyl)cyclopropyl]carbonyl}amino)methyl]benzamide], the IC50 in experiment [1] came out at 3 nM. In experiment [2], the inhibition at 0.01 µM was 50% and the inhibition at 0.1 µM worked out at 90%.

Turning to `COc1ccc(-n2ncc3c(NC(=O)c4cc(CNS(=O)(=O)C5CC5)ccc4Cl)cccc32)cn1` [Example 275, 2-Chloro-5-{[(cyclopropylsulfonyl)amino]methyl}-N-[1-(6-methoxypyridin-3-yl)-1H-indazol-4-yl]benzamide], the IC50 in experiment [1] came out at 3.9 nM. Besides, in experiment [2], the inhibition at 0.01 µM worked out at 66% and the inhibition at 0.1 µM came to 91%.

Regarding `Cc1cc(-n2ncc3c(NC(=O)c4cc(CNC(=O)C5CCCC5)ccc4Cl)cccc32)cc(C)n1` [Example 278, 2-Chloro-5-{[(cyclopentylcarbonyl)amino]methyl}-N-[1-(2,6-dimethylpyridin-4-yl)-1H-indazol-4-yl]benzamide], the IC50 in experiment [1] came out at 3.1 nM. Further, in experiment [2], the inhibition at 0.01 µM was 72% and the inhibition at 0.1 µM stood at 90%.

With `Cc1cc(-n2ncc3c(NC(=O)c4cc(CNC(=O)C(C)(C)C)ccc4C(F)(F)F)cccc32)cc(C)n1` [Example 283, 5-{[(2,2-Dimethylpropanoyl)amino]methyl}-N-[1-(2,6-dimethylpyridin-4-yl)-1H-indazol-4-yl]-2-(trifluoromethyl)benzamide], the IC50 in experiment [1] was 1.9 nM. In experiment [2], the inhibition at 0.01 µM came to 72% and the inhibition at 0.1 µM came to 96%.

For `CC(C)(C)C(=O)NCc1ccc(Cl)c(C(=O)Nc2cccc3c2cnn3C2CC2)c1` [Example 284, 2-Chloro-5-{[(2,2-dimethylpropanoyl)amino]methyl}-N-(1-cyclopropyl-1H-indazol-4-yl)benzamide], in experiment [1], the IC50 was determined as 9.6 nM. The inhibition at 0.01 µM in experiment [2] is 79%.

Consider `CC(C)(C)C(=O)NCc1ccc(C(F)(F)F)c(C(=O)Nc2cccc3c2cnn3C2CC2)c1` [Example 285, 5-{[(2,2-Dimethylpropanoyl)amino]methyl}-N-(1-cyclopropyl-1H-indazol-4-yl)-2-(trifluoromethyl)benzamide], for which the IC50 in experiment [1] worked out at 7.7 nM. Moreover, the inhibition at 0.01 µM in experiment [2] came out at 75%.
